From US12240862B2, “Inhibitors of peptidylarginine deiminases” (Gilead Sciences, Inc., priority 2020, dated 2025) come the findings set out here.

pIC50: −log10 of the molar value.

T1 sequence (Q9UM07 2-663): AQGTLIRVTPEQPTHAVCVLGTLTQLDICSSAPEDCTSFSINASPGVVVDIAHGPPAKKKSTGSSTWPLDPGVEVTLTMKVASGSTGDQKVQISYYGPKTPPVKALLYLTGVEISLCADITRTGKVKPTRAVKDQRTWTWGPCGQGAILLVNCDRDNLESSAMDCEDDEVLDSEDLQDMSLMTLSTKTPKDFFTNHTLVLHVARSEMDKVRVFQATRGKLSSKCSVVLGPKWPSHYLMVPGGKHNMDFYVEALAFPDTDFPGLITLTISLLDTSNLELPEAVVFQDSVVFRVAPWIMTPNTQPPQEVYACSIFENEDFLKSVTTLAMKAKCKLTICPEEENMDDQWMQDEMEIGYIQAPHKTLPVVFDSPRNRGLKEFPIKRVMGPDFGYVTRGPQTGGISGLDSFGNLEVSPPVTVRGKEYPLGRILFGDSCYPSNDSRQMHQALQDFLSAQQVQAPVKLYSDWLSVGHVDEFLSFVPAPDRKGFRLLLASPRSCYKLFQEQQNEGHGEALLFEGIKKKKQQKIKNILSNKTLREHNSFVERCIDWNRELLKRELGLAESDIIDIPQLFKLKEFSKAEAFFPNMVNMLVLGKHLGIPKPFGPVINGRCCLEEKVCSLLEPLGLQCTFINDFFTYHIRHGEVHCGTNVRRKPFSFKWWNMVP

This assay has as its target T1, human PAD4 (Homo sapiens, UniProt Q9UM07).
T1 construct: human PAD4 (NM_012387), A2P663, was PCR amplified; His-SUMO (N, cleaved yes); made in house; host or cells: E. coli BL21(DE3)
As to the kind of experiment: In vitro PAD4 BAEE biochemical assay. The settings on record: human PAD4, BAEE substrate; 5 nM PAD4, 2 mM calcium chloride, 3 mM BAEE; geometric mean of multiple experiments. An outline of the steps:
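Tag-free recombinant hPAD4 (5 nM), 2 mM CaCl2, 3 mM BAEE, 50 mM MOPS pH 7.6, 2 mM DTT; 30 min compound preincubation, 2 h reaction, all 25 °C. EDTA quench; ammonia read via o-phthalaldehyde amine coupling, 1 h.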
A word on the pIC50: it is the negative decadic logarithm of the IC50, by convention in mol/L. Regarding `COc1cc(C(=O)N2C[C@H](N)[C@@H]3CC[C@H]2C3)cc2nc(-c3cc4ccc([C@@H](C)NC(=O)C56CC(F)(C5)C6)nc4n3CC3CC3)c(C)n12` [Example 189, N—((R)-1-(2-(7-((1S,4R,5R)-4-amino-2-azabicyclo[3.2.1]octane-2-carbonyl)-5-methoxy-3-methylimidazo[1,2-a]pyridin-2-yl)-1-(cyclopropylmethyl)-1H-pyrrolo[2,3-b]pyridin-6-yl)ethyl)-3-fluorobicyclo[1.1.1]pentane-1-carboxamide], the negative logarithm of the IC50 (pIC50) was 7.17.
In the case of `COc1cc(C(=O)N2[C@H]3CC[C@@H]2[C@H](N)C3)cc2nc(-c3cc4ccc([C@@H](C)NC(=O)N5CC(O)C5)nc4n3CC3CC3)c(C)n12` [Example 227, ~{N}-[(1~{R})-1-[2-[7-[(1~{R},2~{R},4~{S})-2-amino-7-azabicyclo[2.2.1]heptane-7-carbonyl]-5-methoxy-3-methylimidazo [1,2-a]pyridin-2-yl]-1-(cyclopropylmethyl)pyrrolo [2,3-b]pyridin-6-yl]ethyl]-3-hydroxyazetidine-1-carboxamide], the pIC50 was 7.19.
Take `COc1cc(C(=O)N2[C@H]3CC[C@@H]2[C@H](N)C3)cc2nc(-c3cc4ccc(C(C)CC(=O)N5CCCC5)nc4n3CC3CC3)c(C)n12` (some centres unmarked) [Example 528, 3-[2-[7-[(1~{R},2~{R}, 4~{S})-2-amino-7-azabicyclo[2.2.1]heptane-7-carbonyl]-5-methoxy-3-methylimidazo[1,2-a]pyridin-2-yl]-1-(cyclopropylmethyl)pyrrolo [2,3-b]pyridin-6-yl]-1-pyrrolidin-1-ylbutan-1-one]: the pIC50 was 7.19.
For `COc1cc(C(=O)N2[C@H]3CC[C@@H]2[C@H](N)C3)cc2nc(-c3cc4ccc([C@@H](C)NC(=O)c5ccccc5)nc4n3CC3CC3)c(C3CC3)n12` [Example 142, ~{N}-[(1~{R})-1-[2-[7-[(1~{R},2~{R},4~{S})-2-amino-7-azabicyclo[2.2.1]heptane-7-carbonyl]-3-cyclopropyl-5-methoxyimidazo[1,2-a]pyridin-2-yl]-1-(cyclopropylmethyl)pyrrolo [2,3-b]pyridin-6-yl]ethyl] benzamide], the pIC50 was 6.92.
With `COc1cc(C(=O)N2[C@H]3CC[C@@H]2[C@H](N)[C@H](O)C3)cc2nc(-c3cc4ccc(N(C(F)F)S(C)(=O)=O)nc4n3CC3CC3)c(C)n12` [Example 416, ~{N}-[2-[7-[(1~{R},2~{S},3~{R}, 5~{S})-2-amino-3-hydroxy-8-azabicyclo[3.2.1]octane-8-carbonyl]-5-methoxy-3-methylimidazo[1,2-a]pyridin-2-yl]-1-(cyclopropylmethyl)pyrrolo [2,3-b]pyridin-6-yl]-~{N}-(difluoromethyl) methanesulfonamide] the figure was 6.47; with `CCN(c1ccc2cc(-c3nc4cc(C(=O)N5CCC[C@@H](N)[C@H]5C)cc(OC)n4c3C)n(CC3CC3)c2n1)S(C)(=O)=O` [Example 483, ~{N}-[2-[7-[(2~{R}, 3~{R})-3-amino-2-methylpiperidine-1-carbonyl]-5-methoxy-3-methylimidazo[1,2-a]pyridin-2-yl]-1-(cyclopropylmethyl)pyrrolo [2,3-b]pyridin-6-yl]-~{N}-ethylmethanesulfonamide], 6.89; with `COc1cc(C(=O)N2CCC[C@@H](N)C2)cc2nc(-c3cc4ccc(C(C)CC(=O)N(C)C)nc4n3CC3CC3)c(C)n12` (some centres unmarked) [Example 536, 3-[2-[7-[(3~{R})-3-aminopiperidine-1-carbonyl]-5-methoxy-3-methylimidazo[1,2-a]pyridin-2-yl]-1-(cyclopropylmethyl)pyrrolo[2,3-b]pyridin-6-yl]-~{N},~{N}-dimethylbutanamide], 6.89.
With `COc1cc(C(=O)N2[C@H]3CC[C@@H]2[C@H](N)C3)cc2nc(-c3cc4ccc([C@@H](C)NC(=O)C56CC(F)(C5)C6)nc4n3CC3CC3)c(C)n12` [Example 169, N—((R)-1-(2-(7-((1R,2R,4S)-2-amino-7-azabicyclo[2.2.1]heptane-7-carbonyl)-5-methoxy-3-methylimidazo[1,2-a]pyridin-2-yl)-1-(cyclopropylmethyl)-1H-pyrrolo[2,3-b]pyridin-6-yl)ethyl)-3-fluorobicyclo[1.1.1]pentane-1-carboxamide], the pIC50 is 7.16.
Take `COc1cc(C(=O)N2CCC[C@@H](N)C2)cc2nc(-c3cc4ccc([C@@H](C)NC(=O)N(C)C)nc4n3CC3CC3)c(C)n12` [Example 253, 3-[(1~{R})-1-[2-[7-[(3~{R})-3-aminopiperidine-1-carbonyl]-5-methoxy-3-methylimidazo[1,2-a]pyridin-2-yl]-1-(cyclopropylmethyl)pyrrolo [2,3-b]pyridin-6-yl]ethyl]-1,1-dimethylurea]: the negative-log IC50 (pIC50) is 6.87.
Consider `COc1cc(C(=O)N2[C@H]3CC[C@@H]2[C@H](N)C3)cc2nc(-c3cc4ccc([C@@H](C)NC(=O)c5cnn6c5CCC6)nc4n3CC3CC3)c(C)n12` [Example 74, ~{N}-[(1~{R})-1-[2-[7-[(1~{R},2~{R},4~{S})-2-amino-7-azabicyclo[2.2.1]heptane-7-carbonyl]-5-methoxy-3-methylimidazo [1,2-a]pyridin-2-yl]-1-(cyclopropylmethyl)pyrrolo [2,3-b]pyridin-6-yl]ethyl]-5,6-dihydro-4~{H}-pyrrolo[1,2-b] pyrazole-3-carboxamide], for which the negative logarithm of the IC50 (pIC50) was 7.55.
As to `COc1cc(C(=O)N2C[C@@H]3NCCO[C@@H]3C2)cc2nc(-c3cc4ccc(N(C(F)F)S(C)(=O)=O)nc4n3CC3CC3)c(C)n12` [Example 320, ~{N}-[2-[7-[(4~{a}~{S},7~{a}~{R})-3,4,4~{a},5,7,7~{a}-hexahydro-2~{H}-pyrrolo[3,4-b][1,4]oxazine-6-carbonyl]-5-methoxy-3-methylimidazo [1,2-a]pyridin-2-yl]-1-(cyclopropylmethyl)pyrrolo [2,3-b]pyridin-6-yl]-~{N}-(difluoromethyl) methanesulfonamide], the pIC50 was 4.72.
Take `CCC1C(N)C2CCC1N2C(=O)c1cc(OC)n2c(C)c(-c3cc4ccc(N(C(F)F)S(C)(=O)=O)nc4n3CC3CC3)nc2c1` (single isomer, unassigned) [Example 346]: the negative logarithm of the IC50 (pIC50) was 5.67.
For the compound `COc1cc(C(=O)N2[C@H]3CC[C@@H]2[C@H](N)C3)cc2nc(-c3cc4ccc([C@@H](C)NC(=O)c5cnc(C)o5)nc4n3CC3CC3)c(C)n12` [Example 80, ~{N}-[(1~{R})-1-[2-[7-[(1~{R},2~{R},4~{S})-2-amino-7-azabicyclo[2.2.1]heptane-7-carbonyl]-5-methoxy-3-methylimidazo [1,2-a]pyridin-2-yl]-1-(cyclopropylmethyl)pyrrolo [2,3-b]pyridin-6-yl]ethyl]-2-methyl-1,3-oxazole-5-carboxamide], the pIC50 was 7.54.
With `COc1cc(C(=O)NC[C@H]2CCCN2)cc2nc(-c3cc4ccc(N(C(F)F)S(C)(=O)=O)nc4n3CC3CC3)c(C)n12` [Example 304, 2-[1-(cyclopropylmethyl)-6-[difluoromethyl (methylsulfonyl)amino]pyrrolo[2,3-b]pyridin-2-yl]-5-methoxy-3-methyl-~{N}-[[(2~{R})-pyrrolidin-2-yl]methyl] imidazo[1,2-a]pyridine-7-carboxamide], the pIC50 was 4.72.
